The values that follow are results of earlier work, collected in patent US8691198B2, “Environmentally benign plasticizers based on derivatives of acetone” (priority 2010, dated 2014).

Read-outs that look alike come from different tables or passages of the source.

For data set [1] the following is noted: degradation through oxidation forming phosphoric acid and the corresponding alcohols.

`OCC1(O)COC(O)(CO)CO1` (centres unmarked) [1,3-dihydroxyacetone dimer]: the “LD50 (oral, rat)” value in the data set on rat (oral) is on record as “sixty thousand”. Regarding `CCCC(=O)O` [Butyric acid], the “LD50(rat)” value in the data set with rat (left half of Table 1) is 2940 mg/kg. For `CCCCCC(=O)O` [Caproic acid], the “LD50(rat) ×” value in the data set on rat (right half of Table 1) is 3000 mg/kg. In the case of `CCCCCCCC(=O)O` [Caprylic acid], the “LD50(rat) ×” value in the data set on rat (in vivo) is on record as 600 mg/kg. As for `CC(CC(C)(C)C)CP(=O)(O)CC(C)CC(C)(C)C` (centres unmarked) [Cyanex 272, Bis-(2,4,4-trimethylpentyl) phosphinic acid, reference compound], in the data set on rat, the “LD50(rat)” value was 3500 mg/kg. Besides, in data set [1], the biodegradability result is “biodegradable”. In the case of `CCCCCCC(=O)O` [Heptanoic Acid], the “LD50(rat) ×” value in the data set with rat (right half of Table 1) is recorded as 7000 mg/kg. Regarding `CCCCC(=O)O` [Pentanoic Acid], the “LD50(rat)” value in the data set on rat (in vivo) is reported as 1844 mg/kg.
